What all share (test): DTP human tumour cell line panel, 48 h
In test [1] the test system is A549.
For test [2], the system named is BT-549.
In test [3] the test system is COLO 205.
Test [4] relates to HCC 2998.
The subject of test [5] is HCT-116.
The test system of test [6] is M14.
In test [7] the test system is MCF7.
In test [8] the test system is MDA-MB-231.
Test [9] has as its system MDA-MB-435.
Test [10] has as its system NCI-H226.
The test system of test [11] is NCI-H23.
Test [12] relates to NCI-H460.
The test system of test [13] is OVCAR-5.
Test [14] concerns PC-3.
Test [15] deals with SF-539.
The subject of test [16] is SK-MEL-2.
The subject of test [17] is SNB-75.
Test [18] has as its system UACC-257.
Test [19] relates to CAKI-1.

Molecules are shown by their SMILES.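 Protocol summary: plate cells (96-well), add compound at 5 concentrations, incubate 48 h, interpolate endpoints linearly. Abbreviation: GI50, concentration required for 50% inhibition of growth.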 Active and inactive are the calls of the source. Cut-off read from the data, not from the text of the source: active = GI50 up to about 1.1 µM and inactive = higher. Numbered stars: 1 amine (or outer) side, 2 acyl side, 3 side chain; on linkers, the order of the positions; unused ones are H or OH. Square brackets hold non-standard residues; d marks the D form. Peptide text beside a SMILES is read from it. * marks the point of attachment. X30 = CC(=O)N(C)SCC(N[*:1])C(=O)[*:2]; Cbz = O=C(OCc1ccccc1)*; Bn = c1ccc(C*)cc1

As a reminder, the GI50 is the concentration at which growth is held to half of that of the control. Turning to `CC(=O)N(C)SCC(NC(=O)C(Cc1ccccc1)NC(=O)OCc1ccccc1)C(=O)NC(Cc1ccccc1)C(=O)NC(Cc1c[nH]c2ccccc12)C(=O)NC(CCCCNC(=O)OCc1ccccc1)C(=O)NC(C(=O)NC(CSN(C)C(C)=O)C(=O)NC(C(N)=O)C(C)OCc1ccccc1)C(C)OCc1ccccc1` (stereo not drawn) (Cbz-F[X30]FWK(Cbz)T(Bn)[X30]T(Bn)-NH2; configuration not given here), the GI50 in [1], in test [2], in [3], in test [4], in test [5] and in test [6] was > 100 µM (inactive) each time. Besides, the GI50 was 86.5 µM (inactive) in test [7]; 35.3 µM (inactive) in [8]; > 100 µM (inactive) in test [9]; > 100 µM (inactive) in test [10]; > 100 µM (inactive) in [11]; > 100 µM (inactive) in test [12]. The GI50 in test [13], in test [14], in [15], in test [16], in test [17] and in [18] was > 100 µM (inactive) throughout.
`Cc1cc2c(cc1Cl)Sc1nnc(Nc3ccccc3)n1S2(=O)=O`: the GI50 is 12.1 µM (inactive) in test [1]; 7.78 µM (inactive) in test [2]; 11.1 µM (inactive) in test [19]; 3.96 µM (inactive) in test [4]; 9.64 µM (inactive) in [5]; 14.1 µM (inactive) in test [6]. Moreover, the GI50 in [7] was 8.02 µM (inactive); in test [8] it was 11.7 µM (inactive); in [9], 5.01 µM (inactive); in test [10], 3.08 µM (inactive); in [11], 3.59 µM (inactive); in test [12] it was 8.36 µM (inactive). In addition, the GI50 in [13] is 31.9 µM (inactive); in test [14], 5.7 µM (inactive); in test [15], 2.39 µM (inactive); in [16] it was 4.84 µM (inactive); in [17] it was 5.47 µM (inactive); in test [18] it was 16.6 µM (inactive).
Consider `CC(=O)O[C@@H]1CC[C@@]2(C)C(CC[C@H]3[C@@H]4CC[C@H]([C@H](C)CCc5nc6cc(C)ccc6[nH]5)[C@@]4(C)CC[C@@H]32)C1` (stereo partly drawn), for which the GI50 in [1] is 43.4 µM (inactive); in test [2], 29.8 µM (inactive); in test [19] it was > 100 µM (inactive); in test [3] it was 24.4 µM (inactive); in [4], 71.3 µM (inactive); in test [5], > 100 µM (inactive). Moreover, the GI50 is 16.1 µM (inactive) in test [6]; 38.4 µM (inactive) in test [7]; 18 µM (inactive) in test [8]; > 100 µM (inactive) in [9]; 9.38 µM (inactive) in [10]; 17.3 µM (inactive) in test [11]. The GI50 is > 100 µM (inactive) in test [13]; 9.53 µM (inactive) in test [14]; > 100 µM (inactive) in test [15]; 31 µM (inactive) in test [16]; 6.04 µM (inactive) in test [17]; 38.7 µM (inactive) in [18].
`CN1C(=O)c2c(ccc3c2OCO3)C2C(O)Cc3cc4c(cc3C21)OCO4` (stereo not drawn): the GI50 in test [1] was 5.96 µM (inactive); in test [2] it was 13.8 µM (inactive); in [19] it was 4.76 µM (inactive); in test [3] it was 3.88 µM (inactive); in test [4], 4.06 µM (inactive); in test [5] it was 4.34 µM (inactive). The GI50 in test [6] is 5.78 µM (inactive); in [7] it was 7.5 µM (inactive); in test [8], 3.38 µM (inactive); in test [9] it was 1.61 µM (inactive); in test [10], 2.15 µM (inactive); in test [11], 5.58 µM (inactive). Also, the GI50 is 3.4 µM (inactive) in test [12]; > 100 µM (inactive) in test [13]; 2.58 µM (inactive) in test [14]; 4.57 µM (inactive) in test [15]; 2.47 µM (inactive) in test [16]; 1.89 µM (inactive) in test [17].
Take `CC(=O)N(CCCCNC(=O)C(F)(F)F)CCCNC(=O)C(F)(F)F`: the GI50 in [1], in test [2], in [3], in [4], in test [5] and in test [6] was > 100 µM (inactive) each time. The GI50 in test [7], in test [8], in test [9], in [10], in test [11] and in test [12] was > 100 µM (inactive) throughout. For the same compound, the GI50 in [13], in [14], in [15], in test [16], in test [17] and in test [18] was > 100 µM (inactive) each time.
On to `CCC(C)N1CN(c2ccccc2)C2(CCN(CC3COc4ccccc4O3)CC2)C1=O` (stereo not drawn), for which the GI50 in [1] was 28.7 µM (inactive); in test [2], 14.3 µM (inactive); in test [19], 16.9 µM (inactive); in test [3], 17.7 µM (inactive); in [4], 18.2 µM (inactive); in test [5], 15.9 µM (inactive). For the same compound, the GI50 was 20.2 µM (inactive) in test [6]; 18.9 µM (inactive) in test [7]; > 100 µM (inactive) in test [8]; 19.2 µM (inactive) in test [9]; 21 µM (inactive) in test [10]; 22.9 µM (inactive) in test [11]. Besides, the GI50 in test [13] was > 10 µM (inactive); in [14] it was 26.6 µM (inactive); in test [15] it was 17.8 µM (inactive); in test [17], 36.9 µM (inactive); in [18], 23.9 µM (inactive).
Turning to `CN(CC#N)C(=O)Cc1ccc([N+](=O)[O-])cc1`, the GI50 in test [1], in [2], in [19], in [3], in test [4] and in [5] was > 10 µM (inactive) throughout. Besides, the GI50 in [6], in [7], in test [8], in test [9], in [10] and in test [11] was > 10 µM (inactive) each time. In addition, the GI50 in test [12], in test [13], in [14], in test [15], in test [16] and in test [18] was > 10 µM (inactive) throughout.
Turning to `Cc1ccc2c3c1O[C@H]1c4[nH]c5ccccc5c4C[C@@]4(O)[C@@H](C2)N(CC2CC2)CC[C@]314`, the GI50 in test [1] was 14.7 µM (inactive); in [2], 18.3 µM (inactive); in test [19], 16.6 µM (inactive); in [3], 14.3 µM (inactive); in test [4], 3.78 µM (inactive); in test [5], 14.5 µM (inactive). The GI50 was 16.8 µM (inactive) in test [6]; 16.4 µM (inactive) in test [7]; 19.4 µM (inactive) in [8]; 13.7 µM (inactive) in [9]; 14.9 µM (inactive) in [10]; 19.7 µM (inactive) in test [11]. In addition, the GI50 is 15.2 µM (inactive) in test [12]; 18.7 µM (inactive) in test [13]; 12.1 µM (inactive) in test [14]; 16.5 µM (inactive) in [15]; 17.1 µM (inactive) in test [16]; 16.7 µM (inactive) in test [18].
In the case of `Nc1ncnc2c1ncn2C1OC(COP(=O)(O)CP(=O)(O)O)C(O)C1O` (stereo not drawn), the GI50 in [1] was > 100 µM (inactive); in test [2], > 100 µM (inactive); in [19], > 100 µM (inactive); in test [3] it was 94.6 µM (inactive); in [4], > 100 µM (inactive); in test [5] it was > 100 µM (inactive). Further, the GI50 in [6] is > 100 µM (inactive); in test [7] it was > 100 µM (inactive); in [8], > 10 µM (inactive); in test [9], > 100 µM (inactive); in test [10] it was > 100 µM (inactive); in test [11] it was > 100 µM (inactive). Further, the GI50 in test [13], in [14], in test [15], in test [16], in test [17] and in [18] was > 100 µM (inactive) in each case.
`Cc1nc(C)c(N2CCN([N+](=O)[O-])CC2)c(O)n1`: the GI50 in [1], in test [2], in [19], in test [3], in test [4] and in test [5] was > 100 µM (inactive) each time. Also, the GI50 in test [6], in test [7], in test [8], in test [9], in [10] and in [11] was > 100 µM (inactive) in each case. Moreover, the GI50 is > 100 µM (inactive) in test [12]; > 100 µM (inactive) in [14]; > 100 µM (inactive) in [15]; < 0.01 µM (active) in test [17]; > 100 µM (inactive) in test [18].

Values taken from ChEMBL document CHEMBL1201862, “PubChem BioAssay data set” (2004).
